Three molecules from publication PMC9782601, “A Fucosylated Lactose-Presenting Tetravalent Glycocluster Acting as a Mutual Ligand of Pseudomonas aeruginosa Lectins A (PA-IL) and B (PA-IIL)—Synthesis and Interaction Studies” (International Journal of Molecular Sciences, 2022) can be followed below.

Common to all, as to assay type: binding
For test [1], the target named is T1, PA-IL (LecA) (Pseudomonas aeruginosa, UniProt Q05097).
T1 construct: freeze-dried; tetramer, one sugar site with one calcium ion per monomer
Briefly: 1H STD NMR, reference ligand. The settings on record: 4 mM ligand, 40 μM lectin, D2O, 20 mM Tris-d11, 150 mM NaCl, 5 mM CaCl2, pH 7.5, 283 K.

The target in test [2] is T1, PA-IL (LecA). Nature of the test: isothermal titration calorimetry, single-site model. The settings on record: 0.1 M Tris/HCl, 500 μM CaCl2, pH 7.5, 25 °C. The source says:
isothermal titration calorimetry, single-site model on PA-IL (LecA)
For orientation: In ITC the heat of successive injections is recorded.

For test [3], the target named is T2, PA-IIL (LecB) (Pseudomonas aeruginosa, UniProt Q9HYN5).
T2 construct: freeze-dried; tetramer, one sugar site with two calcium ions per monomer
The description is as above. The settings on record: 0.1 M Tris/HCl, 500 μM CaCl2, pH 7.5, 25 °C. The source says:
isothermal titration calorimetry, single-site model on PA-IIL (LecB)

Each structure is given as a SMILES string.

T1 sequence (Q05097 2-122): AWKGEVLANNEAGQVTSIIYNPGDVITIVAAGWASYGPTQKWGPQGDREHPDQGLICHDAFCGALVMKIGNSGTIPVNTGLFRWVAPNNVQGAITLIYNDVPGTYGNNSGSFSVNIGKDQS
T2 sequence (Q9HYN5 entry or part of it): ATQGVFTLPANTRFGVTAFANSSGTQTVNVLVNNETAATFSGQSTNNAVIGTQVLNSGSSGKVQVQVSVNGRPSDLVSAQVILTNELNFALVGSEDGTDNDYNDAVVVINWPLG

As to `CO[C@H]1O[C@H](CO)[C@H](O)[C@H](O)[C@H]1O` [Meα-D-Gal], in test [1], the STD signal entry is given as “The STD signals (highlighted by red ellipsoids) confirm the binding of Meα-D-Gal”. For `C#CCO[C@@H]1O[C@H](CO)[C@@H](O[C@@H]2O[C@H](CO)[C@H](O)[C@H](O)[C@H]2O)[C@H](O[C@@H]2O[C@@H](C)[C@@H](O)[C@@H](O)[C@@H]2O)[C@H]1O` [compound 6, Compound 6], the “Ka [10^4 M^-1]” value in test [2] (n = 0.51) is given as 59 ± 28.4 10^4 M^-1; in test [3] (n = 1.12), 344 ± 124 10^4 M^-1. For the molecule `C[C@@H]1O[C@@H](O[C@@H]2[C@@H](O)[C@H](OCc3cn(CCn4cc(COCC(COCc5cn(CCn6cc(CO[C@@H]7O[C@H](CO)[C@@H](O[C@@H]8O[C@H](CO)[C@H](O)[C@H](O)[C@H]8O)[C@H](O[C@@H]8O[C@@H](C)[C@@H](O)[C@@H](O)[C@@H]8O)[C@H]7O)nn6)nn5)(COCc5cn(CCn6cc(CO[C@@H]7O[C@H](CO)[C@@H](O[C@@H]8O[C@H](CO)[C@H](O)[C@H](O)[C@H]8O)[C@H](O[C@@H]8O[C@@H](C)[C@@H](O)[C@@H](O)[C@@H]8O)[C@H]7O)nn6)nn5)COCc5cn(CCn6cc(CO[C@@H]7O[C@H](CO)[C@@H](O[C@@H]8O[C@H](CO)[C@H](O)[C@H](O)[C@H]8O)[C@H](O[C@@H]8O[C@@H](C)[C@@H](O)[C@@H](O)[C@@H]8O)[C@H]7O)nn6)nn5)nn4)nn3)O[C@H](CO)[C@H]2O[C@@H]2O[C@H](CO)[C@H](O)[C@H](O)[C@H]2O)[C@@H](O)[C@H](O)[C@@H]1O` [compound 8, Compound 8], the “Ka [10^4 M^-1]” value was 496 ± 104 10^4 M^-1 in test [2] (n = 0.51 pH, buffer, temperature, tetravalent ligand, n = 0.89) and 257 ± 66.9 10^4 M^-1 in test [3] (n = 1.12 pH, buffer, temperature, tetravalent ligand, n = 1.1).
